# Source: publication PMC5706701, “Development of a homogenous high-throughput assay for inositol hexakisphosphate kinase 1 activity” (PLoS ONE, 2017)
# Where a name gives a salt, the structure may show the parent alone. Read-outs that look alike come from different tables or passages of the source.
# Biological target: T1, Human IP6K1 (Homo sapiens, UniProt Q92551)
# T1 construct: GST (N, cleaved yes); made in house; host or cells: C43 E. coli, pGEX-6P-2
# Assay: IP6K1 high-throughput screen of the Sigma LOPAC (ADP-Glo Max, single point);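 also: final compound concentration 10µM in 5% DMSO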
# Format: biochemical
# [1] = LOPAC single-point screen, ADP-Glo Max luminescence raw signal per well
# [2] = LOPAC single-point screen, Z-score relative to plate average and StDev
# [3] = LOPAC single-point screen, ADP-Glo Max raw signal per well
# [4] = LOPAC single-point screen, Z-score from raw signal with plate average and StDev
# [5] = LOPAC single-point screen, Z-score against plate average and StDev
# [6] = Sigma LOPAC single-point screen, ADP-Glo Max raw signal per well
# [7] = Sigma LOPAC single-point screen, Z-score from plate average and StDev
# [8] = LOPAC single-point screen, Z-score from plate average and StDev
# T1 sequence (Q92551 whole entry): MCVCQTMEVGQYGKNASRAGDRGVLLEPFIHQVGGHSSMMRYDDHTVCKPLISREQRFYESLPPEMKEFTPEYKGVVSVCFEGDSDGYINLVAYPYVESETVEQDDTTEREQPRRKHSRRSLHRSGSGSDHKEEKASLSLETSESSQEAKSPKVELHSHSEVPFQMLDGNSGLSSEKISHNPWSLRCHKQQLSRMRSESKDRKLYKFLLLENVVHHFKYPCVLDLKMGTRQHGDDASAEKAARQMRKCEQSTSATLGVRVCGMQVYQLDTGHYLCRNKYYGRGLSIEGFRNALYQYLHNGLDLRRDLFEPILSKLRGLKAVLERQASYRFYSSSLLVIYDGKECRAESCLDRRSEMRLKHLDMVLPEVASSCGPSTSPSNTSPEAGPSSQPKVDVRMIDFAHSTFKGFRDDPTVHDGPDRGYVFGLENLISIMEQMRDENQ
Compound,Raw Signal [1],Z-score [2],Raw Signal [3],also measured
C/C=C1\C(=O)C[C@H]2[C@@H]3CCC4=CC(=O)CC[C@]4(C)[C@H]3CC[C@]12C [(Z)-Gugglesterone],49571,-1.1365,,
Cl.NC[C@@H]1O[C@H](C23CC4CC(CC(C4)C2)C3)Cc2c1ccc(O)c2O [A-77636 hydrochloride],,,56453,Z-score [4]: -0.2572
CCS(=O)(=O)Nc1cccc(C(=C2CCCCC2)c2cnc[nH]2)c1 [A-315456],,,57716,Z-score [5]: -0.03471
CC1=C(C)C(=O)C(CCCCC#CCCCC#CCO)=C(C)C1=O [AA-861],50345,-1.333,,
CNC(=O)[C@H]1O[C@@H](n2cnc3c(NCc4ccc(N)cc4)ncnc32)[C@H](O)[C@@H]1O [AB-MECA],53262,-0.8192,,
O=C(Cc1ccc(Cl)c(Cl)c1)OCCN1CCCC1 [AC 915 oxalate],,,57662,Z-score [5]: -0.04423
NC1(C(=O)O)CCc2cc(C(=O)O)ccc21 (stereo not shown) [AIDA],52578,-0.9397,,
O=C(O)CCC/C=C\C[C@@H]1[C@@H](/C=C/[C@H](O)C2Cc3ccccc3C2)[C@@H](F)C[C@@H]1O [AL-8810],53863,-0.7133,,
CCN(CC)c1ncnc2c1ncn2[C@@H]1O[C@H](COP(=O)([O-])OP(=O)([O-])C(Br)(Br)P(=O)([O-])O)[C@@H](O)[C@H]1O.[Na+].[Na+].[Na+] [ARL 67156 trisodium salt],54051,-0.6802,,
CC(C)(C)c1o[nH]c(=O)c1CC(N)C(=O)O (stereo not shown) [ATPA],,,57342,Z-score [4]: -0.1006
CC(C)(C)c1onc(OCP(=O)(O)O)c1CC(N)C(=O)O (stereo not shown) [ATPO],,,,Raw Signal [6]: 60120; Z-score [7]: 0.3887
CC(N)=O [Acetamide],,,,Raw Signal [6]: 63288; Z-score [7]: 0.9467
CC(=O)Nc1nnc(S(N)(=O)=O)s1 [Acetazolamide],54920,-0.5272,,
CC(=O)c1ccc(S(=O)(=O)NC(=O)NC2CCCCC2)cc1 [Acetohexamide],,,,Raw Signal [6]: 64165; Z-score [7]: 1.101
CC(=O)OC(C)C[N+](C)(C)C.[Cl-] (stereo not drawn) [Acetyl-beta-methylcholine chloride],54689,-0.5679,,
CC(=O)Oc1ccccc1C(=O)O [Acetylsalicylic acid],52950,-0.8741,,
CC(=O)SCC[N+](C)(C)C.[Cl-] [Acetylthiocholine chloride],,,58613,Z-score [5]: 0.1233
CCCCC[C@H](CC(=O)NO)C(=O)N[C@H](C(=O)N1CCC[C@H]1CO)C(C)C [Actinonin],,,,Raw Signal [6]: 64769; Z-score [7]: 1.208
Nc1nc2c(ncn2COCCO)c(=O)[nH]1 [Acyclovir],53270,-0.8178,,
NCCNC(=O)Cc1ccc(NC(=O)Cc2ccc(Nc3ncnc4c3ncn4[C@@H]3O[C@H](CO)[C@@H](O)[C@H]3O)cc2)cc1 [Adenosine amine congener],,,58651,Z-score [5]: 0.13
Nc1ncnc2c1ncn2[C@@H]1O[C@H](CO)[C@@H](O)[C@H]1O [Adenosine],,,56689,Z-score [4]: -0.2156
NCCCCN=C(N)N [Agmatine sulfate],,,56032,Z-score [4]: -0.3313

Compound,Raw Signal [1],Z-score [2],Raw Signal [3],also measured
CC1=C[C@@H]2c3cccc4[nH]cc(c34)C[C@H]2N(C)C1 [Agroclavine],53866,-0.7128,,
CC(N)C(=O)OC(C)(C)Cc1ccc(Cl)cc1 (stereo not shown) [Alaproclate hydrochloride],54794,-0.5494,,
CC(C)(C)NCC(O)c1ccc(O)c(CO)c1.CC(C)(C)NCC(O)c1ccc(O)c(CO)c1.O=S(=O)(O)O (stereo not shown) [Albuterol hemisulfate],,,54773,Z-score [4]: -0.243
Oc1ncnc2[nH]ncc12 [Allopurinol],,,56130,Z-score [4]: -0.3141
O=c1nc2[nH]c3ccccc3nc-2c(=O)[nH]1 [Alloxazine],,,56241,Z-score [4]: -0.2945
C=CCc1ccccc1OCC(O)CNC(C)C (stereo not shown) [Alprenolol hydrochloride],,,,Raw Signal [6]: 60855; Z-score [7]: 0.5181
CN(C)c1nc(N(C)C)nc(N(C)C)n1 [Altretamine],69030,,,Z-score [8]: 1.958
NC12CC3CC(CC(C3)C1)C2 [Amantadine hydrochloride],68782,,,Z-score [8]: 1.914
CCn1cc(C(=O)O)c(=O)c2ccc(Cc3ccccc3)nc21 [Amfonelic acid],,,,Z-score [4]: -0.107
NCCCNCCSP(=O)(O)O [Amifostine],55102,-0.4951,,
N=C(N)NC(=O)c1nc(Cl)c(N)nc1N [Amiloride hydrochloride],,,,Raw Signal [6]: 63890; Z-score [7]: 1.0527
CN1[C@@H]2CC[C@H]1C[C@@H](OC(c1ccccc1)c1ccccc1N)C2 (stereo partly shown) [Aminobenztropine],,,58792,Z-score [5]: 0.1548
NN=C(N)N.NN=C(N)N.O=S(=O)(O)O [Aminoguanidine hemisulfate],,,58107,Z-score [5]: 0.03415
Cl.N=C(N)NN [Aminoguanidine hydrochloride],,,58743,Z-score [5]: 0.1462
Cn1c(=O)c2[nH]cnc2n(C)c1=O.Cn1c(=O)c2[nH]cnc2n(C)c1=O.NCCN [Aminophylline ethylenediamine],,,57914,Z-score [5]: 0.0001585
Nc1nc(N)c2nc(CNc3ccc(C(=O)N[C@@H](CCC(=O)O)C(=O)O)cc3)cnc2n1 [Aminopterin],,,55514,Z-score [4]: -0.4225
CCCCc1oc2ccccc2c1C(=O)c1cc(I)c(OCCN(CC)CC)c(I)c1 [Amiodarone hydrochloride],,,57216,Z-score [4]: -0.1228
CN(C)CCCO[C@@H]1[C@H]2OC(C)(C)O[C@H]2O[C@@H]1[C@H](O)CO [Amiprilose hydrochloride],53728,-0.7371,,
CN(C)CCC=C1c2ccccc2CCc2ccccc21 [Amitriptyline hydrochloride],54808,-0.5469,,
N.S=C(S)N1CCCC1 [Ammonium pyrrolidinedithiocarbamate],,,,Raw Signal [6]: 60867; Z-score [7]: 0.9409
Clc1ccc2c(c1)C(N1CCNCC1)=Nc1ccccc1O2 [Amoxapine],50961,-1.224,,
CCNC(=O)N1CCN(CCCC(c2ccc(F)cc2)c2ccc(F)cc2)CC1 [Amperozide hydrochloride],52806,-0.8995,,

Compound,Raw Signal [1],Z-score [2],Raw Signal [3],also measured
COc1cc(NS(C)(=O)=O)ccc1Nc1c2ccccc2nc2ccccc12 [Amsacrine hydrochloride],,,58568,Z-score [5]: 0.1153
N=c1ccn2c(n1)O[C@H]1[C@H](O)[C@@H](CO)O[C@H]12 [Ancitabine hydrochloride],,,57428,Z-score [5]: -0.08544
C[C@]12CC[C@@H](O)C[C@@H]1CC[C@@H]1[C@@H]2CC[C@]2(C)C(=O)CC[C@@H]12 [Androsterone],,,,Raw Signal: 54396; Z-score: -0.6195
COc1ccc(C(=O)N2CCCC2=O)cc1 [Aniracetam],,,56032,Z-score [4]: -0.3313
Cl.c1ccc(CN(CC2=NCCN2)c2ccccc2)cc1 [Antozoline hydrochloride],54212,-0.6519,,
O=c1cc(-c2ccc(O)cc2)oc2cc(O)cc(O)c12 [Apigenin],54339,-0.6295,,
CN1CCc2cccc3c2[C@H]1Cc1ccc(O)c(O)c1-3 [Apomorphine hydrochloride hemihydrate],53248,-0.8217,,
NC(N)=NCCCCN=C(N)N [Arcaine sulfate],,,57202,Z-score [4]: -0.1252
C#CCOC(=O)C1=CCCN(C)C1 [Arecaidine propargyl ester hydrobromide],,,56259,Z-score [4]: -0.2913
COC(=O)C1=CCCN(C)C1 [Arecoline hydrobromide],,,57110,Z-score [4]: -0.1414
CC1=C(/C=C/C(C)=C/C=C/C(C)=C/C=C/C=C(C)/C=C/C=C(C)/C=C/C2=C(C)C(=O)[C@@H](O)CC2(C)C)C(C)(C)C[C@H](O)C1=O [Astaxanthin],,,57440,Z-score [5]: -0.08333
C[N+]1(C)[C@@H]2CC[C@H]1C[C@@H](OC(=O)C(CO)c1ccccc1)C2 (stereo partly shown) [Atropine methyl bromide],52228,-1.0013,,
C[N+]1(C)[C@@H]2CC[C@H]1C[C@@H](OC(=O)C(CO)c1ccccc1)C2 (stereo partly shown) [Atropine methyl nitrate],,,,Raw Signal [6]: 60117; Z-score [7]: 0.3882
CN1[C@@H]2CC[C@H]1C[C@@H](OC(=O)C(CO)c1ccccc1)C2 (stereo partly shown) [Atropine sulfate],,,57358,Z-score [4]: -0.09777
O=C(O)C1=CC(=C(c2ccc(O)c(C(=O)O)c2)c2ccc(O)c(C(=O)O)c2)C=CC1=O [Aurintricarboxylic acid],8090,-8.775,,
Cn1cnc([N+](=O)[O-])c1Sc1ncnc2nc[nH]c12 [Azathioprine],52333,-0.9828,,
O=C(O)CCCCCCCC(=O)O [Azelaic acid],,,,Raw Signal [6]: 63677; Z-score [7]: 1.015
CCN1CCc2nc(N)oc2CC1.Cl.Cl [B-HT 933 dihydrochloride],,,56378,Z-score [4]: -0.2704
COc1ccccc1N1CCN(CCN2C(=O)CC3(CCCC3)CC2=O)CC1.Cl.Cl [BMY 7378 dihydrochloride],52642,-0.9284,,
COc1ccccc1N1CCN(CCCCNC(=O)c2ccc3ccccc3c2)CC1 [BP 897],,,,Raw Signal [6]: 60942; Z-score [7]: 0.5335
